Results taken from article PMC13181761, “New Analogs of the Compstatin Family of Clinical Complement Inhibitors with Low Picomolar Target Affinity” (Journal of Medicinal Chemistry, 2026).
Several values for one entry are separate records, joined by “and”; a condition that tells them apart may be missing. Equal values may be shown once. Read-outs that look alike come from different tables or passages of the source. Where a SMILES comes first, the peptide text is derived from it. Bridges are numbered along the chain shown (N, C = ends).

Experiments:
[1] = test system: classical pathway complement activation; test: Classical pathway (CP) complement activation ELISA in normal human serum; assay type: biochemical; settings: for IC50: CP ELISA
Procedure: The inhibitory activity of selected peptides in preventing pathway-specific complement activation was evaluated using ELISA as previously described. All assays used normal human serum (NHS), pooled from five unrelated, anonymized healthy donors, obtained with informed consent according to the local ethics committee, and following the guidelines of the Declaration of Helsinki (Blutspendezentrum Basel, Switzerland). To assess classical pathway activity, flat-bottom MaxiSorp 96-well plates (Thermo Fisher) were coated overnight at room temperature with 33 μg/mL IgM (Sigma) in a 0.1 M sodium carbonate buffer. Plates were washed 5 times with phosphate-buffered saline (Dubleccòs, Bioconcept) supplemented with 0.05% Tween-20 (PBS-T). Serial dilutions of peptides were prepared in 1% (v/v) NHS using HBBT++ assay buffer (10 mM HEPES, 150 mM NaCl, pH 7.4, 0.5% BSA, 0.15 mM CaCl2, 0.5 mM MgCl2, 0.1% Tween-20), with samples diluted in 1% (v/v) NHS. Negative controls included each inhibitor in assay buffer alone, assay buffer only, and 1% (v/v) NHS with 10 mM EDTA. HBBT++ with 1% (v/v) pooled NHS served as the 100%-control. After incubating for 1 h at 37 °C and shaking at 700 rpm, plates were washed 5 times with PBS-T. Next, 100 μL of biotinylated monoclonal mouse antihuman TCC antibody (1:1000, Hycult, clone: aE11) to detect terminal complement complexes was added to each well, followed by 1 h incubation at room temperature while shaking. After another 5 washes with PBS-T, 100 μL of HRP-conjugated NeutrAvidin (1:10,000, Invitrogen) was added to each well and incubated for 20 min at room temperature while shaking. Plates were washed 5 more times with PBS-T before adding 100 μL of 1-Step Turbo TMB-ELISA solution (Thermo Scientific) to each well. The reaction was allowed to develop until a light blue color appeared, and then stopped with 100 μL of 2 M sulfuric acid. Colorimetric detection was performed at 450 nm by using a plate reader (Synergy HT, Biotek). All assays were conducted in triplicate and normalized against 100% (no inhibitor, 1% (v/v) serum in buffer) and 0% (1% (v/v) serum in EDTA buffer) controls. In the cases of Cp60 and Cp40, 5% (v/v) NHS was used instead of 1% (v/v) NHS in some assays. Inhibition curves were fitted using nonlinear regression to a normalized variable slope model in Prism (v9-10, GraphPad).

[2] = test system: alternative pathway complement activation; test: Alternative pathway (AP) complement activation ELISA in normal human serum; assay type: biochemical; settings: diluted human serum (figure legends 1%; method 10% NHS)
Procedure: The inhibitory activity of selected peptides in preventing pathway-specific complement activation was evaluated using ELISA as previously described. All assays used normal human serum (NHS), pooled from five unrelated, anonymized healthy donors, obtained with informed consent according to the local ethics committee, and following the guidelines of the Declaration of Helsinki (Blutspendezentrum Basel, Switzerland).
The activity of selected peptides in preventing the activation of the alternative pathway was evaluated by analogy to the classical pathway ELISA described above, with some adjustments. Flat-bottom PolySorb 96-well plates (Thermo Fisher) were coated overnight at room temperature with 40 μg/mL lipopolysaccharide from Salmonella enteritidis (Sigma-Aldrich) in 0.1 M sodium carbonate buffer and washed 5 times with PBS-T. Serial dilutions of peptides were prepared in 10% (v/v) pooled NHS using HBBT + assay buffer (10 mM HEPES, 150 mM NaCl, pH 7.4, 0.5% BSA, 5 mM EGTA, 5 mM MgCl2, and 0.1% Tween-20), with samples diluted in 10% (v/v) NHS. Negative controls included each inhibitor in assay buffer alone, assay buffer only, and 10% (v/v) serum with 10 mM EDTA. HBBT+ with 10% (v/v) pooled NHS served as the 100%-control. Subsequent steps were performed as described above.

human C3b [3] = biological target: T1, human C3b (Homo sapiens, UniProt P01024); test: SPR kinetic binding to immobilized human C3b; settings: for k a, affinity hC3b / k d, affinity hC3b / Kd: SPR, 1:1 Langmuir fit, average of 3 independent experiments, SD in brackets; for Kd: read-out: K D, affinity hC3b
T1 construct: purchased Complement Technology, Tyler, TX, USA
T1 sequence (P01024 23-667 limits assumed): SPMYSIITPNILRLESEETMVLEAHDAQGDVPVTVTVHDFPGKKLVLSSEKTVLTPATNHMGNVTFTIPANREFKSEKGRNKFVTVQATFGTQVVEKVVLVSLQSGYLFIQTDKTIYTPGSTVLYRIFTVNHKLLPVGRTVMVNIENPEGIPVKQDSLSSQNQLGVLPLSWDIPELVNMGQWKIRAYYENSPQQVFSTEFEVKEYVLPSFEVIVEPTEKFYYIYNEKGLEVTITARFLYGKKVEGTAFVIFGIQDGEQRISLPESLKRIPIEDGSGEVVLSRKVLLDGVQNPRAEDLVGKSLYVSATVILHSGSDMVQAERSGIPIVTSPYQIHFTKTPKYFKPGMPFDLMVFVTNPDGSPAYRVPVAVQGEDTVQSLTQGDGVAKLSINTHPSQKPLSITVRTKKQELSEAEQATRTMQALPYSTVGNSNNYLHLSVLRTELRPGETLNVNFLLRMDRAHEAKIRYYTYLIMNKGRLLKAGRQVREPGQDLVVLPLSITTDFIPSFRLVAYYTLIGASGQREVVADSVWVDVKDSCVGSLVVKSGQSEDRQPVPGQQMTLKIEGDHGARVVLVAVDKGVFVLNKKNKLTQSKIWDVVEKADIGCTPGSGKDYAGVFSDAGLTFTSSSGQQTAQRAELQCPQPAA
T1 sequence (P01024 749-1663 partner limits assumed): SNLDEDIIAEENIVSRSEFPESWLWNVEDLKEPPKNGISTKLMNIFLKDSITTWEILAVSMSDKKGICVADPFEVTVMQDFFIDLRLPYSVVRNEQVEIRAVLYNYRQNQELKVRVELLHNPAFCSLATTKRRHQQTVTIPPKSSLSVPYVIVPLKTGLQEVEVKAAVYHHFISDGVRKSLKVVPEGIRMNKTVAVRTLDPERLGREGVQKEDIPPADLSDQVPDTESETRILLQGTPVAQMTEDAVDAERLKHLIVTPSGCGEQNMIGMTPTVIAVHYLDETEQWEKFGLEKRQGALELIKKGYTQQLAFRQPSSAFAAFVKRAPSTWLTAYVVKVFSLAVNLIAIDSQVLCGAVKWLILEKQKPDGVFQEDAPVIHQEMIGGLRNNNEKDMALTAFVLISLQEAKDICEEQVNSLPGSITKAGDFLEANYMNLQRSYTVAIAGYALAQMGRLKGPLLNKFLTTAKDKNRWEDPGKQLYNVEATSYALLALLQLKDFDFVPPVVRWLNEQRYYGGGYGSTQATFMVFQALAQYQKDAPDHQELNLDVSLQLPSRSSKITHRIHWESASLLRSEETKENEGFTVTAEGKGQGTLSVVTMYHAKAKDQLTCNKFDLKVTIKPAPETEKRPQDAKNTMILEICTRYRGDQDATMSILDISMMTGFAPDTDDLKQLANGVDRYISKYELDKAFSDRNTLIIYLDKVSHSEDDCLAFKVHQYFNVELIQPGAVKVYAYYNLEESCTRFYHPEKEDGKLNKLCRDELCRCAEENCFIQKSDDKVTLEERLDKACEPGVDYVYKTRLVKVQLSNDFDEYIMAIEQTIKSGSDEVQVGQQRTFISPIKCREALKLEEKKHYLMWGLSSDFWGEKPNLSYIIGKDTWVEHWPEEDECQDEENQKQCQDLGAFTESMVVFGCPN
Procedure: Experiments were conducted at 25 °C in HBST buffer (10 mM HEPES, 150 mM NaCl, and 0.05% Tween-20, pH 7.4; XanTec bioanalytics). Human C3b (Complement Technology, Tyler, TX, USA) was immobilized via amine-reactive coupling. […] Individual peptide samples were injected for 120 s, followed by a 180 s dissociation phase. […] Signals from the reference cell and buffer blank injections were subtracted within each dilution series to correct for buffer effects and injection artifacts. Data were fitted to a Langmuir 1:1 binding model to calculate association (k a) and dissociation (k d) rate constants, and the equilibration constant K D is calculated based on the equation: K D = k d/k a. In the case of Cp40 derivatives and Cp60, a single-cycle approach was used for kinetic analysis by injecting 5 increasing concentrations of each compound (0.5-40 nM) consecutively without a regeneration period in between injections. Individual injections within a cycle were 120 s long with a 5 min dissociation phase between injections. […] Analog Cp40 was included in each experimental series as a reference and internal control. Signals from the reference cell and buffer blank injections were subtracted to correct for buffer effects and injection artifacts. Kinetic data were processed in BiaEvaluation (Cytiva) using single-cycle evaluation by global fitting each data set to a Langmuir 1:1 binding model. The reported kinetic parameters (Tables and ) indicate the mean values and standard deviations of three independent experiments. SPR sensorgrams are provided in the Supporting Information.

human C3b [4] = biological target: T1, human C3b; test: SPR kinetic binding to immobilized human C3b; settings: K D determined as steady state affinity, read-out: K D, affinity hC3b, steady state affinity
[5] = first-in-human trials, cited from earlier work

| Structure (SMILES) | IC50 ([1]; 1% diluted normal human serum, listed as Cp01-V3I) | fold enhanced potency for inhibiting complement activation in vitro vs Cp01 ([1]; IC50 ratio vs Cp01) | IC50 [2] | fold improvement in affinity compared with Cp01 (human C3b [3]; K D ratio vs Cp01) | k a, affinity hC3b (human C3b [3]) | k d, affinity hC3b (human C3b [3]) | Kd (human C3b [3]) | Kd (human C3b [4]) | IC50 ([1]; 5% human serum) | immunogenicity [5] | safety profile ([5]; single and multiple doses via different routes) | k d, affinity hC3b (human C3b [3]; listed as Cp40 Val) |
| --- | --- | --- | --- | --- | --- | --- | --- | --- | --- | --- | --- | --- |
| CC[C@H](C)[C@H](NC(C)=O)C(=O)N[C@H]1CSSC[C@@H](C(=O)N[C@H](C(N)=O)[C@@H](C)O)NC(=O)[C@H](CCCNC(=N)N)NC(=O)[C@H](Cc2c[nH]cn2)NC(=O)[C@H](C)NC(=O)CNC(=O)[C@H](Cc2c[nH]c3ccccc23)NC(=O)[C@H](CC(=O)O)NC(=O)[C@H](CCC(N)=O)NC(=O)[C@H](Cc2c[nH]c3ccccc23)NC(=O)[C@H]([C@@H](C)CC)NC1=O [Cp01-Val3Ile] (Ac-ICIWQDWGAHRCT-NH2; disulfide 2-12) | 0.43 µM | up to 40 fold | 0.2 µM | ~10 fold | 8.8(0.1) 10^5 M^–1 s^–1 | 1.7(0.1) 10^–2 s^–1 | 0.02 µM and 0.0198 µM |  |  |  |  |  |
| CC[C@@H](C)[C@@H]1NC(=O)[C@@H](NC(=O)[C@@H](NC(C)=O)[C@@H](C)CC)CSSC[C@@H](C(=O)N[C@H](C(N)=O)[C@@H](C)O)NC(=O)[C@H](CCCNC(=N)N)NC(=O)[C@H](Cc2c[nH]cn2)NC(=O)[C@H](C)NC(=O)CNC(=O)[C@H](Cc2c[nH]c3ccccc23)NC(=O)[C@H](CC(=O)O)NC(=O)[C@H](CCC(N)=O)NC(=O)[C@H](Cc2c[nH]c3ccccc23)NC1=O [Cp01-Val3aIle] |  |  |  |  |  |  |  | 0.545 µM |  |  |  |  |
| CC[C@H](C)[C@H](NC(=O)[C@H](N)Cc1ccc(O)cc1)C(=O)N[C@H]1CSSC[C@@H](C(=O)N(C)[C@H](C(N)=O)[C@@H](C)CC)NC(=O)[C@H](CCCNC(=N)N)NC(=O)[C@H](Cc2c[nH]cn2)NC(=O)[C@H](C)NC(=O)CN(C)C(=O)[C@H](Cc2c[nH]c3ccccc23)NC(=O)[C@H](CC(=O)O)NC(=O)[C@H](CCC(N)=O)NC(=O)[C@H](Cc2cn(C)c3ccccc23)NC(=O)[C@H](C(C)C)NC1=O [Cp40, reference compound] |  |  |  |  | 17.6(0.3) 10^5 M^–1 s^–1 | 0.1 10^–2 s^–1 | 0.0007 µM |  | 0.158 µM | no evidence of drug-related immunogenicity or increase in antidrug antibodies | good safety profile | 0.1(0.0) 10^–2 s^–1 |
